Measured values: paper PMC11721313, “Sustained inhibition of CSF1R signaling augments antitumor immunity through inhibiting tumor-associated macrophages” (JCI Insight, 2025)

Experiments:
Assay type in all cases: cell-based
[1] = biological target: T1, CSF1R (colony-stimulating factor 1 receptor) (Mus musculus, UniProt P09581); test: Western blot of CSF1R signaling in RAW264 cells with and without drug removal (reference CSF1R inhibitor)
T1 sequence (P09581 20-977): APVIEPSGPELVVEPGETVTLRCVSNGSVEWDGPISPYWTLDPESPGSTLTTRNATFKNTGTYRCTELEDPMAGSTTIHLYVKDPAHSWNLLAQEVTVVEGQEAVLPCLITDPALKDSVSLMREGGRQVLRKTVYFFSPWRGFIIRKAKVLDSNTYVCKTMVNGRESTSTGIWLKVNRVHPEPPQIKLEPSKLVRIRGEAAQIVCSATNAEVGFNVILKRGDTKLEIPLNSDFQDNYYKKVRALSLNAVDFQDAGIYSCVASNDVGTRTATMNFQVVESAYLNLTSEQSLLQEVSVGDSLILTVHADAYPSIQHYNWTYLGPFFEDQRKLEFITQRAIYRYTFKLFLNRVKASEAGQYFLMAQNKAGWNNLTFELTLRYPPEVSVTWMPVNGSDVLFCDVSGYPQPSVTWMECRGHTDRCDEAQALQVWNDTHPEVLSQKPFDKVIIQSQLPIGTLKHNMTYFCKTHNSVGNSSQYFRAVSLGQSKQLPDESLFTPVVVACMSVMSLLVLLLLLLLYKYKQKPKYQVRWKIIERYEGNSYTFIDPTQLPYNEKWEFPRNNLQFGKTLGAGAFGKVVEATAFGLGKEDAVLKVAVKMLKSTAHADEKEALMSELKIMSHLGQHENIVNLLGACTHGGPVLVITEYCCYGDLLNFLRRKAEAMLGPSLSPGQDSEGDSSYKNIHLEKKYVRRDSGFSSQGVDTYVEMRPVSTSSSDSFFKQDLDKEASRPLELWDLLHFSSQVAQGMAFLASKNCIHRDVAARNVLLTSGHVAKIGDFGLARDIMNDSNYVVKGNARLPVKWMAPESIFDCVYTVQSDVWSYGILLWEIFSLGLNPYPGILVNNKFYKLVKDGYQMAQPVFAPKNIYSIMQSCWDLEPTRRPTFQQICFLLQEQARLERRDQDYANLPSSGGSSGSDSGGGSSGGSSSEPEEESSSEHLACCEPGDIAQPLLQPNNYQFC

[2] = biological target: CSF1R (colony-stimulating factor 1 receptor) (Homo sapiens, UniProt P07333); test: Western blot of M-CSF-induced CSF1R phosphorylation in human monocyte-derived macrophages
[3] = biological target: T1, CSF1R (colony-stimulating factor 1 receptor); test: Western blot of M-CSF-induced CSF1R phosphorylation in murine BMDMs and RAW264 cells; inhibition persists after drug washout

Sequence of CSF1R (colony-stimulating factor 1 receptor) (Homo sapiens, UniProt P07333) (P07333 20-972): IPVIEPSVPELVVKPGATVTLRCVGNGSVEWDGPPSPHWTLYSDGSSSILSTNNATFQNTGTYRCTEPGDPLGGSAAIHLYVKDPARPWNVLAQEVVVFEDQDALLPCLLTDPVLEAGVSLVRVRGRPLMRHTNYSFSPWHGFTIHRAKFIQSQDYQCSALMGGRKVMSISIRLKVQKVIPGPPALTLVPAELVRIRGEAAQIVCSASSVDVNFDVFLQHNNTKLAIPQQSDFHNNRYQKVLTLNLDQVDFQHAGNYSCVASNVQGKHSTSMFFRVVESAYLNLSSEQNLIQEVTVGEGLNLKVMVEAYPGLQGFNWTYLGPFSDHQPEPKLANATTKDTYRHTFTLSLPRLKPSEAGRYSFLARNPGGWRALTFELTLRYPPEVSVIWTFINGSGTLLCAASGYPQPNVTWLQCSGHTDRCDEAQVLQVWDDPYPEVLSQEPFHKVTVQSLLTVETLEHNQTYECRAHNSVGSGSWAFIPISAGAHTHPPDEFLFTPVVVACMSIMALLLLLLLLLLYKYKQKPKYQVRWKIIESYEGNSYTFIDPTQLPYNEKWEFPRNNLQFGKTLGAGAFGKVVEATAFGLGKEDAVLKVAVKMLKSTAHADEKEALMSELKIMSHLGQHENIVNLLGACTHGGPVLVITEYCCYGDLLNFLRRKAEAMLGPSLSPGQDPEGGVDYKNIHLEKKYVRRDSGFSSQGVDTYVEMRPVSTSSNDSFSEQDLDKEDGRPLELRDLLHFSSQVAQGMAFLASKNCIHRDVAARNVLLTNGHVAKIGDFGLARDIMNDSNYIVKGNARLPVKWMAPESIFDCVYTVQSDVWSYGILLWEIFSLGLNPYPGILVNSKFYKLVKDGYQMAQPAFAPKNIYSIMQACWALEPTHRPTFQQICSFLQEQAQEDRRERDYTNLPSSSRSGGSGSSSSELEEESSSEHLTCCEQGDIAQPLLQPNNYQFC

Row | SMILES | Western blot of CSF1R signaling in RAW264 cells with and without drug removal (r) [1] | Western blot of M-CSF-induced CSF1R phosphorylation in human monocyte-derived ma [2] | Western blot of M-CSF-induced CSF1R phosphorylation in murine BMDMs and RAW264 c [3]
1 | CNC(=O)c1cc(Oc2ccc3nc(N[C@@H]4CCCC[C@H]4O)sc3c2)ccn1 [BLZ945] | the inhibitory activity of BLZ945, another CSF1R inhibitor with an IC50 comparable to that of FF-10101, decreased upon drug removal |  | 
2 | CCCNc1nc(Nc2ccc(C#N)cc2)ncc1C#CCCCNC(=O)[C@H](C)N(C)C(=O)/C=C/CN(C)C [FF-10101] |  | human monocyte-derived macrophages upon reexposure to M-CSF was markedly inhibited by FF-10101 in a dose-dependent manner | upon reexposure to M-CSF was markedly inhibited by FF-10101 in a dose-dependent manner
